EPA's ToxValDB 9.5 (doi:10.2903/j.efsa.2008.139r)

What was measured:
Oryctolagus sp. = conditions: developmental; development
Lepomis macrochirus = conditions: acute; mortality
Apis mellifera = conditions: acute, mortality
Perdix sp. = conditions: acute; oral; unspecified; mortality
Oncorhynchus mykiss = conditions: chronic/long-term
Tagia sp. = conditions: acute; duration: 14 days; mortality
Canidae = conditions: oral, Dog Other, organ weight
Daphnia magna = conditions: chronic/long-term
Typhlodromus pyri = assay: LR50; higher = less toxic; conditions: not reported; mortality

With `CCO/N=C(\CC)C1=C(O)CC(c2c(C)cc(C)cc2C)CC1=O` (stereo unspecified) [Tralkoxydim] the NOEC (Oryctolagus sp.) was 20 mg/kg-day, the LC50 (Lepomis macrochirus) was > 6.1 µg/mL and the LC50 (Colinus virginianus; acute, oral, diet, mortality) was 1020 mg/kg-day. For the same molecule, the NOEC (Colinus virginianus; reproduction developmental) was 14.3 mg/kg-day, the LD50 (Apis mellifera; dermal) was > 100 µg/piece and the LD50 (Apis mellifera; oral, unspecified) was > 117 µg/piece. For the same molecule, the LD50 (Perdix sp.) was 2020 mg/kg-day, the NOEC (Oncorhynchus mykiss) was 4.6 mg/L and the LD50 (Rattus norvegicus; acute, oral, mortality) was 934 mg/kg-day. The NOAEL (Rattus norvegicus; developmental, development) was 1 mg/kg-day, the NOAEL (Rattus norvegicus; reproduction developmental, body weight) was 18.2 mg/kg-day and the LC50 (Tagia sp.) was > 1000 mg/kg. The NOAEL (Canidae; chronic, duration: 1 years) was 0.5 mg/kg-day, the NOAEL (Canidae; subchronic, duration: 90 days) was 0.5 mg/kg-day and the NOEC (Daphnia magna) was 2.1 mg/L. The LR50 (Typhlodromus pyri) was > 450 g/ha.
